What all share (type): in vivo
The test system of experiment [1] is Erysiphe cichoracearum on cucumbers. As to the kind of experiment: Greenhouse trial, 4 day residual, Erysiphe cichoracearum on cucumbers. The source says: (§1) The fungicides are applied in single treatments, or in a combination comprising a benzophenone of formula I and a compound selected from (A) through (E) as defined above. The compounds are applied in form of an aqueous spray mix obtained from a concentrated formulation or the technical material.
(§2) 1. Seed is planted in 6 cm diameter plastic pots and maintained in the greenhouse.
(§3) 2. When the primary leaf is fully expanded (in the case of cereals) or several leaves are present (in the case of dicots), formulated test compounds are sprayed with a three nozzle overhead fungicide sprayer to near run-off. Alternatively, a single nozzle overhead track sprayer is used for application of the compounds to cereals at a rate of 200 liters/ha (l/ha). Plants are then allowed to air-dry.
(§4) 3. Inoculation precedes treatment in the case of curative evaluations and follows treatment in case of residual evaluations. For inoculation of powdery mildew disease, plants are set up on greenhouse benches with bottom watering mats and inoculated by dusting them with conidia from infected plants. Between inoculation and treatment for curative evaluations and between treatment and inoculation for residual evaluations, plants are maintained in the greenhouse with bottom watering. For inoculation of non-powdery mildew diseases, an aqueous spore suspension of the pathogen is applied to the plant and the plants are kept 1-2 days in a moist infection chamber before being returned to the greenhouse where they are maintained by bottom watering.
(§5) 4. Disease on the foliage as percent leaf area with disease symptoms/signs is evaluated about 7 days after inoculation. In the case of wheat, the tips and bases of the leaves are excluded from the evaluation. [formula]
(§6) 1. Technical compounds are formulated in a solvent/surfactant system consisting of 5% acetone and 0.05% Tween 20 in deionized water. Compounds are dissolved in acetone prior to addition of the water; the Tween 20 can be added through either the acetone or the water. Dilutions are made using the solvent/surfactant system. Formulated compounds are prepared using deionized water.
(§7) Assessments of the diseases took place at the indicated day after the application of the compounds. Per cent infected leaf area infected was evaluated. The efficacy of the compounds/compounds mixtures to control the diseases was calculated by using the formula given above under item 4: […]
(§8) Synergy of a fungicide mixture was determined by comparing the actual (observed) fungicidal activity of the mixture to the expected fungicidal activity of the mixture as calculated using the COLBY formula given hereinabove.

The subject of experiment [2] is Puccinia recondita on wheat. Kind of experiment: Greenhouse trial, 4 day residual, Puccinia recondita on wheat. The note with it: for pest or weed control at 0.4 ppm / pest or weed control at 2 ppm / pest or weed control at 10 ppm / pest or weed control at 50 ppm / pest or weed control at 4 ppm / pest or weed control at 16 ppm / pest or weed control at 64 ppm / pest or weed control at 256 ppm: Puccinia recondita, 96 h, read-out: Observed Efficacy; for pest or weed control at 0.4 ppm / pest or weed control at 2 ppm / pest or weed control at 10 ppm / pest or weed control at 50 ppm: Table XV (Example 15), 4 day residual; for pest or weed control at 0.4 ppm: dose rate 0.4 ppm; for pest or weed control at 2 ppm: dose rate 2 ppm; for pest or weed control at 10 ppm: dose rate 10 ppm; for pest or weed control at 50 ppm: dose rate 50 ppm; for Observed Efficacy / pest or weed control at 4 ppm / pest or weed control at 16 ppm / pest or weed control at 64 ppm / pest or weed control at 256 ppm: compound alone.
Text: as §1, §2, §3, §4, §5, §6, §7, §8
Fungicidal Efficacy of the Mixture of BP-4+Other Fungicides (4 Day Residual) Against Puccinia recondita on Wheat
Fungicidal Efficacy of the Mixture of BP-4+Myclobutanil (4 Day Residual) Against Puccinia recondita on Wheat

Experiment [3] deals with Leptosphaeria nodorum on wheat. As to the kind of experiment: Greenhouse trial, 4 day residual, Leptosphaeria nodorum on wheat. The note with it: for Observed Efficacy: Table VIII; for pest or weed control at 64 ppm / pest or weed control at 256 ppm / pest or weed control at 4 ppm / pest or weed control at 16 ppm: Parastagonospora nodorum, 96 h, read-out: Observed Efficacy.
Text: as §1, §2, §3, §4, §5, §6, §7, §8
Fungicidal Efficacy of the Mixture of BP-4+Other Fungicides (4 Day Residual) Against Leptosphaeria nodorum on Wheat

Setting [4] is: Golovinomyces cichoracearum, 96 h, Table XIV (Example 14), 4 day residual, dose rate 0.4 ppm, read-out: Observed Efficacy.
The mark [5] stands for this setting: Golovinomyces cichoracearum, 96 h, Table XIV (Example 14), 4 day residual, dose rate 2 ppm, read-out: Observed Efficacy.
Where [6] appears, read: Golovinomyces cichoracearum, 96 h, Table XIV (Example 14), 4 day residual, dose rate 10 ppm, read-out: Observed Efficacy.
[7] abbreviates: Golovinomyces cichoracearum, 96 h, Table XIV (Example 14), 4 day residual, dose rate 50 ppm, read-out: Observed Efficacy.
The mark [8] stands for this setting: Table VI, compound alone, dose rate 4 ppm.
[9] abbreviates: Table VI, compound alone, dose rate 16 ppm.
Where [10] appears, read: Table VI, compound alone, dose rate 64 ppm.
[11] abbreviates: Table VI, compound alone, dose rate 256 ppm.
The mark [12] stands for this setting: Golovinomyces cichoracearum, 96 h, Table XI, compound alone, dose rate 0.4 ppm, read-out: Observed Efficacy.
Setting [13] is: Golovinomyces cichoracearum, 96 h, Table XI, compound alone, dose rate 2 ppm, read-out: Observed Efficacy.
The mark [14] stands for this setting: Golovinomyces cichoracearum, 96 h, Table XI, compound alone, dose rate 10 ppm, read-out: Observed Efficacy.
Where [15] appears, read: Golovinomyces cichoracearum, 96 h, Table XI, compound alone, dose rate 50 ppm, read-out: Observed Efficacy.
Where [16] appears, read: Table X, compound alone, dose rate 64 ppm.
[17] abbreviates: Table X, compound alone, dose rate 256 ppm.

Like-named read-outs stand apart in the source and are kept apart here.

In the case of `CC(C)(C)C(O)C(Oc1ccc(Cl)cc1)n1cncn1` (stereo not shown) [Triadimenol], the pest or weed control at 0.4 ppm in experiment [1] (setting [4]) and in experiment [2] was 1% each time. Further, the pest or weed control at 2 ppm in experiment [1] (setting [5]) and in experiment [2] was 21% throughout. For the same compound, the pest or weed control at 10 ppm amounted to 45% in experiment [1] (setting [6]) and 69% in experiment [2]. Moreover, the figures for the pest or weed control at 50 ppm in experiment [1] (setting [7]) and in experiment [2] were 68% and 98%, respectively.
For the compound `CSC(=O)c1cccc2nnsc12` [BION, acibenzolar], the “Observed Efficacy” value is listed as 0% in experiment [1] (setting [8]); 0% in experiment [1] (setting [9]); 0% in experiment [1] (setting [10]); 0% in experiment [1] (setting [11]); 0% in experiment [2] (Table VII, dose rate 4 ppm); 0% in experiment [2] (Table VII, dose rate 16 ppm). Besides, the “Observed Efficacy” value in experiment [2] (Table VII, dose rate 64 ppm) is 0%; in experiment [2] (Table VII, dose rate 256 ppm) it was 0%.
`CCCC(Cn1cncn1)c1ccc(Cl)cc1Cl` (stereo not shown) [Penconazole]: the pest or weed control at 0.4 ppm in experiment [1] (setting [4]) was determined as 6%; in experiment [2], 0%. Also, the pest or weed control at 2 ppm in experiment [1] (setting [5]) turned out to be 35%; in experiment [2], 3%. Further, the figures for the pest or weed control at 10 ppm in experiment [1] (setting [6]) and in experiment [2] were 37% and 10%, respectively. Besides, the pest or weed control at 50 ppm in experiment [1] (setting [7]) is 67%; in experiment [2] it was 26%.
Take `CC(C)(C)C(O)(CCc1ccc(Cl)cc1)Cn1cncn1` (stereo not shown) [Tebuconazole]: the pest or weed control at 0.4 ppm in experiment [1] (setting [12]) stood at 10%. For the same compound, in experiment [1] (setting [13]), the pest or weed control at 2 ppm was 45%. In experiment [1] (setting [14]), the pest or weed control at 10 ppm stood at 79%. The pest or weed control at 50 ppm in experiment [1] (setting [15]) was found to be 95%.
Turning to `CC(Oc1ccc(Cl)cc1Cl)C(=O)NC(C)(C#N)C(C)C` (stereo not shown) [AC 382042], the “Observed Efficacy” value in experiment [1] (Table XI, compound alone, dose rate 0.4 ppm) is reported as 7%; in experiment [1] (Table XI, compound alone, dose rate 2 ppm), 3%; in experiment [1] (Table XI, compound alone, dose rate 10 ppm) it was 14%; in experiment [1] (Table XI, compound alone, dose rate 50 ppm), 25%.
For `N#Cc1c[nH]cc1-c1cccc(Cl)c1Cl` [Fenpiclonil], the pest or weed control at 4 ppm in experiment [2] (Table IX, dose rate 4 ppm) came to 1%. Also, the pest or weed control at 16 ppm in experiment [2] (Table IX, dose rate 16 ppm) stood at 0%. Moreover, in experiment [2] (Table IX, dose rate 64 ppm), the pest or weed control at 64 ppm was 18%. The pest or weed control at 256 ppm in experiment [2] (Table IX, dose rate 256 ppm) amounted to 58%.
In the case of `COCC(=O)N(c1c(C)cccc1C)C(C)C(=O)OC` (stereo not shown) [Metalaxyl], the pest or weed control at 64 ppm in experiment [2] (Table IX, dose rate 64 ppm) is 0%. In experiment [2] (Table IX, dose rate 256 ppm), the pest or weed control at 256 ppm came out at 12%.
Regarding `N#Cc1c(Cl)c(Cl)c(Cl)c(C#N)c1Cl` [Chlorothalonil], the pest or weed control at 4 ppm in experiment [1] (Golovinomyces cichoracearum, 96 h, Table VI, compound alone, dose rate 4 ppm, read-out: Observed Efficacy) was found to be 0%; in experiment [2] (Table VII, dose rate 4 ppm), 0%. The pest or weed control at 16 ppm stood at 0% in experiment [1] (Golovinomyces cichoracearum, 96 h, Table VI, compound alone, dose rate 16 ppm, read-out: Observed Efficacy) and 0% in experiment [2] (Table VII, dose rate 16 ppm). Besides, the pest or weed control at 64 ppm stood at 0% in experiment [1] (Golovinomyces cichoracearum, 96 h, Table VI, compound alone, dose rate 64 ppm, read-out: Observed Efficacy) and 0% in experiment [2] (Table VII, dose rate 64 ppm). The pest or weed control at 256 ppm in experiment [1] (Golovinomyces cichoracearum, 96 h, Table VI, compound alone, dose rate 256 ppm, read-out: Observed Efficacy) was 1%; in experiment [2] (Table VII, dose rate 256 ppm) it was 31%.
Consider Ethirimol, for which the “Observed Efficacy” value in experiment [1] (setting [8]) is given as 50%; in experiment [1] (setting [9]), 83%; in experiment [1] (setting [10]) it was 94%; in experiment [1] (setting [11]) it was 100%; in experiment [2] (Table VII, dose rate 16 ppm) it was 0%; in experiment [2] (Table VII, dose rate 64 ppm), 0%. For the same compound, in experiment [2] (Table VII, dose rate 256 ppm), the “Observed Efficacy” value was determined as 0%.
With `CO/C=C(/C(=O)OC)c1ccccc1Oc1cc(Oc2ccccc2C#N)ncn1` [Azoxystrobin], the “Observed Efficacy” value in experiment [3] (compound alone, dose rate 4 ppm) came out at 84%; in experiment [3] (compound alone, dose rate 16 ppm), 97%; in experiment [3] (compound alone, dose rate 64 ppm), 100%; in experiment [3] (compound alone, dose rate 256 ppm) it was 100%; in experiment [1] (setting [8]), 78%; in experiment [1] (setting [9]), 96%. The “Observed Efficacy” value in experiment [1] (setting [10]) and in experiment [1] (setting [11]) was 100% throughout.
Consider `O=[N+]([O-])c1cc(C(F)(F)F)c(Cl)c([N+](=O)[O-])c1Nc1ncc(C(F)(F)F)cc1Cl` [Fluazinam], for which the pest or weed control at 64 ppm in experiment [3] (setting [16]) turned out to be 81%; in experiment [2] (Table IX, dose rate 64 ppm), 22%. For the same compound, the pest or weed control at 256 ppm in experiment [3] (setting [17]) is 91%; in experiment [2] (Table IX, dose rate 256 ppm), 80%. Also, the pest or weed control at 4 ppm in experiment [2] (Table IX, dose rate 4 ppm) is 0%. In addition, the pest or weed control at 16 ppm in experiment [2] (Table IX, dose rate 16 ppm) amounted to 6%.
For `CCCCCCCCCCCCNC(=N)N` [Dodine], in experiment [3], the pest or weed control at 4 ppm came to 0%, the pest or weed control at 16 ppm was 6%, the pest or weed control at 64 ppm came out at 24% and the pest or weed control at 256 ppm stood at 59%.
Regarding `Fc1ccc([C@]2(Cn3cncn3)O[C@H]2c2ccccc2Cl)cc1` (racemic) [Epoxiconazole], the pest or weed control at 0.4 ppm in experiment [1] (setting [12]) came out at 0%. The pest or weed control at 2 ppm in experiment [1] (setting [13]) is 46%. For the same compound, the pest or weed control at 10 ppm in experiment [1] (setting [14]) turned out to be 68%. Further, the pest or weed control at 50 ppm in experiment [1] (setting [15]) was 77%.
Take `O=C1C2CC=CCC2C(=O)N1SC(Cl)(Cl)Cl` (stereo not shown) [Captan]: the pest or weed control at 64 ppm came out at 84% in experiment [3] (setting [16]) and 55% in experiment [2] (Table IX, dose rate 64 ppm). Besides, the pest or weed control at 256 ppm in experiment [3] (setting [17]) worked out at 90%; in experiment [2] (Table IX, dose rate 256 ppm) it was 89%. In experiment [2] (Table IX, dose rate 4 ppm), the pest or weed control at 4 ppm was determined as 4%. The pest or weed control at 16 ppm in experiment [2] (Table IX, dose rate 16 ppm) amounted to 11%.
Take `C[C@@]1(c2ccc(Oc3ccccc3)cc2)OC(=O)N(Nc2ccccc2)C1=O` (racemic) [Famoxadone]: the pest or weed control at 4 ppm worked out at 66% in experiment [3] (Table X, compound alone, dose rate 4 ppm) and 45% in experiment [2] (Table IX, dose rate 4 ppm). Moreover, the pest or weed control at 16 ppm in experiment [3] (Table X, compound alone, dose rate 16 ppm) was found to be 69%; in experiment [2] (Table IX, dose rate 16 ppm) it was 80%. For the same compound, the pest or weed control at 64 ppm in experiment [3] (setting [16]) turned out to be 80%; in experiment [2] (Table IX, dose rate 64 ppm), 92%. In addition, in experiment [3] (setting [17]), the pest or weed control at 256 ppm is 97%.

The record behind these values is patent publication US6346535B1, “Fungicidal mixtures” (American Cyanamid Company, priority 1999, dated 2002).
